Columns and labels:
human SOS1 = human SOS1 (Homo sapiens (Human), UniProt Q07889); experiment: Surface Plasmon Resonance (SPR) SOS1 Binding Assay; conditions: biotinylated SOS1 (res. 564-1049), 25° C., kinetic or steady state fit, read-out: KD for hSOS1
Procedure: Binding to SOS1 was measured using a SPR assay with purified recombinant human SOS1 substrate (res. 564-1049 with N-terminal Avi tag; purified and biotinylated based on Hillig, et al., Proc Natl Acad Sci USA (2019); 116(7):2551-2560). SPR measurements were performed on a Biacore 8K SPR instrument (GE Healthcare, Sweden). Assays were performed at 25° C. using Series S SA sensor chips pre-coated with streptavidin (GE Healthcare, Cat. BR100531). Biotinylated SOS1 diluted in sample buffer (20 mM Tris HCl, 150 mM NaCl, 1 mM DTT, 0.05% TWEEN 20, 1 mM MgCl2, pH 8.0) was captured to one flow cell of the chip to about 3,000 resonance units (RU) using sample buffer supplemented with 5% DMSO as a running buffer. Serial dilutions of the assayed compounds in the running buffer at 100, 50 or 0.5 μM were injected for 60 s at a flow rate of 30 μL/min and association phases were recorded. Dissociation of the samples was monitored for 600 s. Data processing was performed using Biacore Insight Software (Biacore, GE Healthcare). Sensorgrams recorded on a SA flow cell without captured protein were subtracted from sensorgrams recorded on the SOS1 surface. Blank injections of running buffer were used for double referencing and solvent correction was applied to all sample sensorgrams to correct for buffer mismatches. KDs were estimated using a kinetic or steady state, where applicable, fitting model describing a reversible equilibrium with 1:1 binding between SOS1 and the compound.

[1] = biological target: SOS1:KRAS (G12C) interaction (Homo sapiens (Human), UniProt Q07889); experiment: SOS1-KRas(G12C) FRET Assay; type: binding; conditions: 0.5 nM His10-SOS1 (res. 564-1049), 2.5 nM GST-KRAS (res. 1-169, G12C); read-out: SOS-KRas(G12C) FRET IC50
SOS1:KRAS (G12C) interaction, sequence (Q07889 564-1049, stated change not applied): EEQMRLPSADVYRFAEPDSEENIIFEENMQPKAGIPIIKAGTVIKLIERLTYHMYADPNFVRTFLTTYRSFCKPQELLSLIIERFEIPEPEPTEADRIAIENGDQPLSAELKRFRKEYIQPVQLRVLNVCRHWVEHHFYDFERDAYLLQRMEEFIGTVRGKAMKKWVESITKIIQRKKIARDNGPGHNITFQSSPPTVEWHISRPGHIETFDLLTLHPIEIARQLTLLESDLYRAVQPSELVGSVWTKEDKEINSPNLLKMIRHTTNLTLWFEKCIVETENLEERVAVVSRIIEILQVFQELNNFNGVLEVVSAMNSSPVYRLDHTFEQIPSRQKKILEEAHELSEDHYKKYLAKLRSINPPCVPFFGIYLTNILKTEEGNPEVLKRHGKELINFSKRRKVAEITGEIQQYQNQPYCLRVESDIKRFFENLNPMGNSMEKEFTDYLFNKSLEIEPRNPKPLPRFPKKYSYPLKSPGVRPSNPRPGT
In short: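 Compounds were pre-incubated 15 min at 25° C with SOS1 (His10, res. 564-1049; 0.5 nM final) and anti-6His-XL665, then GST-KRAS G12C (res. 1-169; 2.5 nM final) with anti-GST-Eu(K) was added for 2 h at RT. The buffer was PBS, 0.1% BSA, 5 mM MgCl2, 100 mM KF, 5 mM DTT with 0.5% DMSO. The 665/615 nm signal was normalised to DMSO and no-SOS1 controls, and IC50 and Hill coefficient were fitted by non-linear regression.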

human SOS1, sequence (Q07889 564-1049): as the sequence (Q07889 564-1049, stated change not applied) above

SMILES	Kd (human SOS1)	IC50 [1]
Cc1c([C@@H](C)Nc2nn(C)c(=O)c3cc(=O)n(C4CCOCC4)cc23)cccc1C(F)(F)F [Example 4, (R)-2-methyl-4-((1-(2-methyl-3-(trifluoromethyl)phenyl)ethyl)amino)-6-(tetrahydro-2H-pyran-4-yl)-2,6-dihydropyrido[3,4-d]pyridazine-1,7-dione]	22 nM	54.6 nM
COc1c(=O)n(C2CCCCC2)cc2c(N[C@H](C)c3cccc(C(F)F)c3F)nn(C)c(=O)c12 [Example 49, (R)-6-cyclohexyl-4-((1-(3-(difluoromethyl)-2-fluorophenyl)ethyl)amino)-8-methoxy-2-methyl-2,6-dihydropyrido[3,4-d]pyridazine-1,7-dione]	13 nM	51.3 nM
C[C@@H](Nc1nn(C)c(=O)c2cc(=O)n([C@H]3CCOC[C@H]3F)cc12)c1cccc(C(F)F)c1F (single isomer, unassigned) [Example 33]	8 nM	31.3 nM
Cc1c([C@@H](C)Nc2nn(C)c(=O)c3cc(=O)n(C45CC(C4)C5)cc23)cccc1C(F)(F)F [Example 16, (R)-6-(bicyclo[1.1.1]pentan-1-yl)-2-methyl-4-((1-(2-methyl-3-(trifluoromethyl)phenyl)ethyl)amino)-2,6-dihydropyrido[3,4-d]pyridazine-1,7-dione]	84 nM	235 nM
C[C@@H](Nc1nn(C)c(=O)c2cc(=O)n(C34CC(N5CCOCC5)(C3)C4)cc12)c1cccc(C(F)F)c1F [Example 50, (R)-4-((1-(3-(difluoromethyl)-2-fluorophenyl)ethyl)amino)-2-methyl-6-(3-morpholinobicyclo[1.1.1]pentan-1-yl)-2,6-dihydropyrido[3,4-d]pyridazine-1,7-dione]	29 nM	54.4 nM
CNCc1ccccc1-c1csc([C@@H](C)Nc2nn(C)c(=O)c3cc(=O)n(C4CC4)cc23)c1 [Example 57, (R)-6-cyclopropyl-2-methyl-4-((1-(4-(2-((methylamino)methyl)phenyl)thiophen-2-yl)ethyl)amino)-2,6-dihydropyrido[3,4-d]pyridazine-1,7-dione]	8 nM	21.9 nM
C[C@@H](Nc1nn(C)c(=O)c2cc(=O)n(C3CCOCC3)cc12)c1cccc2c1OCC2(F)F [Example 47, (R)-4-((1-(3,3-difluoro-2,3-dihydrobenzofuran-7-yl)ethyl)amino)-2-methyl-6-(tetrahydro-2H-pyran-4-yl)-2,6-dihydropyrido[3,4-d]pyridazine-1,7-dione]	6 nM	82.4 nM
COc1c(=O)n([C@H]2CCOC[C@H]2F)cc2c(N[C@H](C)c3cccc(C(F)F)c3F)nn(C)c(=O)c12 (single isomer, unassigned) [Example 59]	441 nM	1040 nM
C[C@@H](Nc1nn(C)c(=O)c2cc(=O)n([C@@H]3CCOC(C)(C)C3)cc12)c1cccc(C(F)F)c1F (single isomer, unassigned) [Example 84]	28 nM	229 nM
C[C@@H](Nc1nn(C)c(=O)c2cc(=O)n(C3CCOCC3)cc12)c1cccc(C(F)(F)C(C)(C)O)c1F [Example 40, (R)-4-((1-(3-(1,1-difluoro-2-hydroxy-2-methylpropyl)-2-fluorophenyl)ethyl)amino)-2-methyl-6-(tetrahydro-2H-pyran-4-yl)-2,6-dihydropyrido[3,4-d]pyridazine-1,7-dione]	9 nM	21.1 nM
Cc1c([C@@H](C)Nc2nn(C)c(=O)c3cc(=O)n([C@H]4C[C@H](O)C4)cc23)cccc1C(F)(F)F [Example 13, 6-((1r,3r)-3-hydroxycyclobutyl)-2-methyl-4-(((R)-1-(2-methyl-3-(trifluoromethyl)phenyl)ethyl)amino)-2,6-dihydropyrido[3,4-d]pyridazine-1,7-dione]	25 nM	99.6 nM
Cc1c(=O)n(C2(C(F)F)CC2)cc2c(N[C@H](C)c3cccc(C(F)F)c3F)nn(C)c(=O)c12 [Example 74, (R)-4-((1-(3-(difluoromethyl)-2-fluorophenyl)ethyl)amino)-6-(1-(difluoromethyl)cyclopropyl)-2,8-dimethyl-2,6-dihydropyrido[3,4-d]pyridazine-1,7-dione]	69 nM	91 nM
C[C@H](Nc1nn(C)c(=O)c2cc(=O)n(C3CC3)cc12)c1ccc2c(C#N)nn(C)c2c1 (single isomer, unassigned) [Example 26]	> 50000 nM	100000 nM
Cc1c([C@@H](C)Nc2nn(C)c(=O)c3cc(=O)n(C4CC4)cc23)cccc1C(F)(F)F [Example 2, (R)-6-cyclopropyl-2-methyl-4-((1-(2-methyl-3-(trifluoromethyl)phenyl)ethyl)amino)-2,6-dihydropyrido[3,4-d]pyridazine-1,7-dione]	57 nM	328 nM
C[C@@H](Nc1nn(C)c(=O)c2cc(=O)n(C3CC3)cc12)c1ccc2c(C#N)nn(C)c2c1 (single isomer, unassigned) [Example 25]	225 nM	3860 nM

The remaining lines, values ahead:

Kd (human SOS1)	IC50 [1]	SMILES
134 nM	1530 nM	Cc1cc([C@@H](C)Nc2nn(C)c(=O)c3cc(=O)n(C4CC4)cc23)cc2c1c(C#N)nn2C (single isomer, unassigned) [Example 27]
70 nM	300 nM	Cc1c([C@@H](C)Nc2nn(C)c(=O)c3c(N4CC[C@H](N)C4)c(=O)n(C4CC4)cc23)cccc1C(F)(F)F [Example 21, 8-((S)-3-aminopyrrolidin-1-yl)-6-cyclopropyl-2-methyl-4-(((R)-1-(2-methyl-3-(trifluoromethyl)phenyl)ethyl)amino)-2,6-dihydropyrido[3,4-d]pyridazine-1,7-dione]
16 nM	53.8 nM	C[C@@H](Nc1nn(C)c(=O)c2cc(=O)n(C3CCOCC3)cc12)c1cccc(C(F)F)c1F [Example 18, (R)-4-((1-(3-(difluoromethyl)-2-fluorophenyl)ethyl)amino)-2-methyl-6-(tetrahydro-2H-pyran-4-yl)-2,6-dihydropyrido[3,4-d]pyridazine-1,7-dione]
10 nM	43.9 nM	Cc1c([C@@H](C)Nc2nn(C)c(=O)c3c([C@@H]4CCCN4)c(=O)n(C4CC4)cc23)cccc1C(F)(F)F (single isomer, unassigned) [Example 34]
95 nM	592 nM	Cc1c([C@@H](C)Nc2nn(C)c(=O)c3c(Cl)c(=O)n(C4CC4)cc23)cccc1C(F)(F)F [Example 11, (R)-8-chloro-6-cyclopropyl-2-methyl-4-((1-(2-methyl-3-(trifluoromethyl)phenyl)ethyl)amino)-2,6-dihydropyrido[3,4-d]pyridazine-1,7-dione]
24 nM	60.5 nM	C[C@@H](Nc1nn(C)c(=O)c2cc(=O)n(C3(C(F)F)CC3)cc12)c1cccc(C(F)F)c1F [Example 43, (R)-4-((1-(3-(difluoromethyl)-2-fluorophenyl)ethyl)amino)-6-(1-(difluoromethyl)cyclopropyl)-2-methyl-2,6-dihydropyrido[3,4-d]pyridazine-1,7-dione]
21 nM	62.4 nM	C[C@@H](Nc1nn(C)c(=O)c2cc(=O)n(C3CCOCC3)cc12)c1cccc2c(F)coc12 [Example 46, (R)-4-((1-(3-fluorobenzofuran-7-yl)ethyl)amino)-2-methyl-6-(tetrahydro-2H-pyran-4-yl)-2,6-dihydropyrido[3,4-d]pyridazine-1,7-dione]
42 nM	61.9 nM	Cc1c([C@@H](C)Nc2nn(C)c(=O)c3cc(=O)n([C@H]4C[C@H](n5ccnc5)C4)cc23)cccc1C(F)(F)F [Example 29, 6-((1r,3R)-3-(1H-imidazol-1-yl)cyclobutyl)-2-methyl-4-(((R)-1-(2-methyl-3-(trifluoromethyl)phenyl)ethyl)amino)-2,6-dihydropyrido[3,4-d]pyridazine-1,7-dione]
64 nM	286 nM	CC(=O)N1CCC(n2cc3c(N[C@H](C)c4cccc(C(F)(F)F)c4C)nn(C)c(=O)c3cc2=O)CC1 [Example 9, (R)-6-(1-acetylpiperidin-4-yl)-2-methyl-4-((1-(2-methyl-3-(trifluoromethyl)phenyl)ethyl)amino)-2,6-dihydropyrido[3,4-d]pyridazine-1,7-dione]
12 nM	16.7 nM	C[C@@H](Nc1nn(C)c(=O)c2cc(=O)n(C3(C(F)F)CC3)cc12)c1cccc(C(F)(F)C(C)(C)O)c1F [Example 70, (R)-4-((1-(3-(1,1-difluoro-2-hydroxy-2-methylpropyl)-2-fluorophenyl)ethyl)amino)-6-(1-(difluoromethyl)cyclopropyl)-2-methyl-2,6-dihydropyrido[3,4-d]pyridazine-1,7-dione]

Source: patent publication US20240279221A1, “HETEROCYCLIC COMPOUNDS AND METHODS OF USE” (Schrödinger, Inc., priority 2021, published 2024)
